Reference: patent US20250017952A1, “ANTIFUNGAL COMPOUND, COMPOSITION AND USES THEREOF” (SASTRA DEEMED UNIVERSITY, priority 2021, published 2025)
Values joined by “and” are separate entries in the source; they are usually repeats but may differ in a detail not shown here. Equal values may be shown once. “Also recorded” adds a separate entry of the source.

How the values were obtained:
[1] = test system: C. albicans SC5314 biofilm; experiment: CLSM analysis of biofilm with COMSTAT quantification; type: cell-based, Candida albicans; details: for live/dead fluorescence of cells in CLSM: green = live, red = dead
From the text: FIG. 4a illustrates CLSM analyses of biofilm inhibitory effects of Cangrelor against C. albicans SC5314. […] The presence of red fluorescence in fluconazole treatment confirms its fungicidal effect. The COMSTAT analysis was done to quantify the biofilm coverage, average thickness, and biovolume from Z-stacks obtained from at least 5 regions of the glass slides, using a confocal laser scanning microscope (Olympus FLUOVIEW, FV1000) with a 40× objective lens (FIG. 4b).

[2] = test system: Candida albicans on T24 bladder epithelial cells; experiment: Adhesion and invasion of C. albicans in monolayer T24 bladder epithelial cells; type: cell-based
From the text: FIG. 10 illustrates the microscopic images of the monolayer T24 bladder epithelial cells infected with Candida albicans with and without Cangrelor treatment. […] The yeast cells (circled in white) were maintained upon the treatment and thereby couldn't adhere and invade the epithelial cells.

[3] = test system: C. albicans biofilm, hyphal and virulence genes; experiment: qRTPCR of biofilm, hyphal and virulence genes; type: cell-based, Candida albicans
Experimental: FIG. 8 illustrates the qRTPCR analysis of biofilm, hyphal and virulence genes in C. albicans biofilms treated with Cangrelor using 18srRNA as the housekeeping gene. Briefly, after 24 h incubation, planktonic cells were removed, and biofilm cells were collected, and RNA was extracted for the treated and untreated groups. […] The data was obtained in triplicates and analysis was performed by the 2^−ΔΔCt method.

[4] = test system: C. albicans virulence genes (biofilm, hyphae, drug resistance); experiment: RNAseq differential expression analysis; type: cell-based, Candida albicans; details: treated vs untreated
From the text: A cutoff absolute value of log fold change >1 (2-fold change) was used. Adjusted P value <0.05 (c) Venn diagram illustrating the degree of overlap between various virulence genes (Biofilm Inducing (BI); Hyphal Inducing (HI); and Drug Resistance (DR) in C. albicans under drug (Cangrelor) treated and untreated conditions.
TRY6, FYV5 (Pentland et al., 2018; Murillo et al., 2005; Nett et al., 2009a), drug-resistance genes MAK1 and RPP1 (Nett et al., 2009b; Levitin & Whiteway, 2007a) and upregulation of the genes, GAL and MAF1 that negatively regulates (repressors) the biofilm phenotype in C. albicans (Nobile et al., 2012). […] In Candida albicans, the potential shift from yeast to hypha is a route cause to host invasion and symbiotic relationship with other pathogens, where the data was significant to show downregulation of hyphal-specific genes such as ECE1, RAS, NDT80 (Moyes et al., 2016). […] This observation was very crucial to the inventor's claim that the compound, Cangrelor could potentiate the anti-fungal susceptibility (Moyes et al., 2016; Maglott et al., 2007b; Levitin & Whiteway, 2007b; Chaudhuri et al., 2011; Singh et al., 2011). Taken together, Cangrelor systematically downregulate the virulence features to potentially curb the pathogenesis of C. albicans.

C. albicans biofilm = experiment: Biofilm inhibition, Crystal Violet (CV) assay; type: cell-based, Candida albicans; details: crystal violet biofilm biomass
Experimental: (§1) FIG. 3 illustrates antifungal and antibiofilm evaluation against C. albicans at varying concentrations: The effect of the Cangrelor on planktonic cells was determined by measuring the OD at 595 nm. A wide range of concentrations ranging from 100 μM-0.47 pM were considered for evaluation. Biofilm inhibitory effects were determined by measuring the biofilm biomass using the Crystal Violet (CV) assay. The dose-response curves were plotted by fitting the inhibition data using a 4-parameter logistic equation. Cangrelor inhibited biofilms at a minimum concentration of 120 pM

[5] = test system: C. albicans SC5314 biofilm; experiment: SEM analysis of biofilm; type: cell-based, Candida albicans
Experimental: FIG. 5 illustrates Cangrelor abolish C. albicans SC5314 biofilm. An overnight culture of C. albicans was grown overnight at 30° C. in YPD liquid media. C. albicans cells (1.5×10^7 cells/ml) were seeded on the glass slides in the presence or absence of the ALS-3 drug-like chemotype, Cangrelor in YPD and incubated at 37° C. for 24 h. […] Statistical significance was determined using the unpaired Student's t test (P<0.0001).

[6] = test system: C. albicans planktonic cells; experiment: Planktonic growth, OD at 595 nm; type: cell-based, Candida albicans; details: 100 μM-0.47 pM tested
Experimental: as §1

[7] = test system: Candida albicans SC5314, ATCC90028, clinical isolate BF1; experiment: Germ tube / filamentation inhibition, phase contrast; type: cell-based; details: for germ tube / hyphal morphogenesis, time-dependent: till 6 h, three strains
Experimental: FIG. 6 illustrates the phase contrast images of germ tube inhibition of Candida albicans for the three strains by cangrelor in a time-dependent manner till 6 h. The untreated C. albicans show the hyphal development from the 2nd hour, where the yeast cells adhere, and at the 6 h, the hyphal is elongated and branched.
FIG. 7 illustrates the phase contrast images of filamentation inhibition of Candida albicans by cangrelor after 24 h of inhibition.
A time-dependent mapping of the hyphal development was done until 6 h upon Cangrelor treatment and compared to the untreated control for the three strains of C. albicans, including the standard strains-SC5314 and ATCC90028, and clinical isolate, BF1. […] The morphogenesis switch inhibition is essential as the primary virulence characteristic of C. albicans is hyphal formation. The hyphal form is necessary for biofilm formation and polymicrobial interaction to invade the host cell and overcome the immune response.

SMILES: CSCCNc1nc(SCCC(F)(F)F)nc2c1ncn2[C@@H]1O[C@H](COP(=O)(O)OP(=O)(O)C(Cl)(Cl)P(=O)(O)O)[C@@H](O)[C@H]1O [Cangrelor]
- biofilm structure in CLSM images ([1]; C. albicans SC5314): no biofilm formation
- roughness coefficient ([1]; COMSTAT, control 1.2): 1.91
- diffusion distance ([1]; COMSTAT, control 8.73 μm): 0.18 μm
- average biofilm thickness ([1]; COMSTAT, control 28.64 μm): 0.5 μm
- biofilm biomass ([1]; COMSTAT, untreated 25.96 μm): significant reduction
- live/dead fluorescence of cells in CLSM [1]: live cells
- adherence and invasion of epithelial cells [2]: reducing adherence and invasion
- hyphal morphogenesis on epithelial cells [2]: inhibited hyphal morphogenesis
- expression of adhesion and invasion genes ([3]; 240 pM, 24 h biofilm cells): downregulated
- ECE1 gene expression ([3]; qRTPCR): downregulation
- ERG11 gene expression ([3]; qRTPCR): downregulated
- PLB1 expression downregulation ([3]; qRTPCR, 2^−ΔΔCt): ~2 log fold
- expression of transcriptional regulators of biofilm and hyphal genes, adhesin and hyphal specific protein ([3]; qRTPCR, 18srRNA housekeeping): downregulated
- number of biofilm inducing genes downregulated [4]: more than 90 genes
- IC50 (C. albicans biofilm; Candida albicans, read-out: BIC50 (50% Biofilm Inhibition Concentration)): 120 pM
- concentration at which biofilms were inhibited (minimum / very low concentration) (C. albicans biofilm): 120 pM
- filamentation in SEM ([5]; 120 pM vs untreated control): abolished filamentation
- number of cells in SEM ([5]; 120 pM, 24 h, YPD, untreated more than 1200 cells): < 56 cells and < 60 cells
- growth of C. albicans (planktonic) [6]: without affecting growth; also recorded: not inhibited
- filamentation after 24 h ([7]; 24 h): maintained the yeast form
- germ tube / hyphal morphogenesis, time-dependent [7]: inhibits the hyphal morphogenesis
- germ tube / hyphal morphogenesis, time-dependent ([7]; listed as cangrelor): did not switch to the hyphal form

SMILES: OC(Cn1cncn1)(Cn1cncn1)c1ccc(F)cc1F [fluconazole]
- live/dead fluorescence of cells in CLSM [1]: dead cells
